# In ChEMBL document CHEMBL4177762, “Combined Approach of Backbone Amide Linking and On-Resin N-Methylation for the Synthesis of Bioactive and Metabolically Stable Peptides” (J Med Chem, 2018):
# Active and inactive are the calls of the source. The calls are words filed in the database; no cut-off is given here. Non-standard residues stand in square brackets, D forms with d. Residues, ends and D or L forms follow the SMILES beside them. *: point of attachment. NMeVal(β-OH) = CN[C@H](C(=O)O)C(C)(C)O; NH(4-OH-phenethyl) = Oc1ccc(CCN*)cc1; Val(3-OH) = CC(C)(O)[C@H](N)C(=O)O; NMeL = CN[C@@H](CC(C)C)C(=O)O; NHPhenethyl = c1ccc(CCN*)cc1; NMeV = CN[C@H](C(=O)O)C(C)C
# What was measured:
# Micrococcus luteus = experiment: Antibacterial activity against Micrococcus luteus ATCC 9341 assessed as growth inhibition up to 128 ug/ml; type: functional, organism-based
# L6 = experiment: Cytotoxicity against rat L6 cells after 72 hrs by Alamar Blue assay; type: cell-based; settings: L6, 72 h
# Staphylococcus aureus [1] = experiment: Antibacterial activity against methicillin-resistant Staphylococcus aureus ATCC 43300 assessed as growth inhibition up to 128 ug/ml; type: functional, organism-based
# Staphylococcus aureus [2] = experiment: Antibacterial activity against Staphylococcus aureus ATCC 29213 assessed as growth inhibition up to 128 ug/ml; type: functional, organism-based
# Pseudomonas aeruginosa = experiment: Antibacterial activity against Pseudomonas aeruginosa ATCC 27853 assessed as growth inhibition up to 128 ug/ml; type: functional, organism-based
# Enterococcus faecalis = experiment: Antibacterial activity against Enterococcus faecalis ATCC 29212 assessed as growth inhibition up to 128 ug/ml; type: functional, organism-based
# [3] = system: Trypanosoma brucei rhodesiense; experiment: Antiprotozoal activity against trypomastigote stage of Trypanosoma brucei rhodesiense STIB900 after 72 hrs by Alamar Blue assay; type: functional, organism-based
# Escherichia coli = experiment: Antibacterial activity against Escherichia coli ATCC 25922 assessed as growth inhibition up to 128 ug/ml; type: functional, organism-based
# [4] = Drug metabolism in Sprague-Dawley rat liver microsomes assessed as CYP450-mediated (S)-2-amino-N-((S)-1-((S)-1-((S)-1-(4-hydroxyphenethylamino)-3-methyl-1-oxobutan-2-ylamino)-3-methyl-1-oxobutan-2-ylamino)-3-methyl-1-oxobutan-2-yl)-3-methylbutanamide formation at 1 mM preincubated with NADPH regenerating system followed by microsome addition measured after 15 to 60 mins by HR-HPLC-MS method; type: ADME; settings: 1000 µM
# [5] = Drug metabolism in Sprague-Dawley rat liver microsomes assessed as CYP450-mediated (S)-2-((S)-2-amino-3-methylbutanamido)-3-hydroxy-3-methyl-N-((S)-3-methyl-1-((S)-3-methyl-1-oxo-1-(phenethylamino)butan-2-ylamino)-1-oxobutan-2-yl)butanamide formation at 1 mM preincubated with NADPH regenerating system followed by microsome addition measured after 15 to 60 mins by HR-HPLC-MS method; type: ADME; settings: 1000 µM
# [6] = Drug metabolism in Sprague-Dawley rat liver microsomes assessed as CYP450-mediated (S)-2-((S)-2-((S)-2-amino-3-methylbutanamido)-3-methylbutanamido)-3-hydroxy-3-methyl-N-((S)-3-methyl-1-oxo-1-(phenethylamino)butan-2-yl)butanamide formation at 1 mM preincubated with NADPH regenerating system followed by microsome addition measured after 15 to 60 mins by HR-HPLC-MS method; type: ADME; settings: 1000 µM
# [7] = Half life in Galleria mellonella hemolymph plasma at 0.5 mM by HPLC-MS method; type: ADME, cell-free
# [8] = Drug level in Sprague-Dawley rat liver microsomes assessed as CYP450-mediated compound formation treated with (S)-2-amino-3-methyl-N-((S)-3-methyl-1-((S)-3-methyl-1-((S)-3-methyl-1-oxo-1-(phenethylamino)butan-2-ylamino)-1-oxobutan-2-ylamino)-1-oxobutan-2-yl)butanamide at 1 mM preincubated with NADPH regenerating system followed by microsome addition measured after 15 to 60 mins by HR-HPLC-MS method; type: ADME; settings: 1000 µM
# [9] = Drug metabolism in Sprague-Dawley rat liver microsomes assessed as CYP450-mediated (S)-2-((S)-N,3-dimethyl-2-(methylamino)butanamido)-N-((S)-1-(((S)-1-(4-hydroxyphenethylamino)-3-methyl-1-oxobutan-2-yl)(methyl)amino)-3-methyl-1-oxobutan-2-yl)-N,3-dimethylbutanamide formation at 1 mM preincubated with NADPH regenerating system followed by microsome addition measured after 15 to 60 mins by HR-HPLC-MS method; type: ADME; settings: 1000 µM
# [10] = Drug metabolism in Sprague-Dawley rat liver microsomes assessed as CYP450-mediated (S)-3-hydroxy-N,3-dimethyl-N-((S)-3-methyl-1-(methyl((S)-3-methyl-1-(methyl((S)-3-methyl-1-oxo-1-(phenethylamino)butan-2-yl)amino)-1-oxobutan-2-yl)amino)-1-oxobutan-2-yl)-2-(methylamino)butanamide formation at 1 mM preincubated with NADPH regenerating system followed by microsome addition measured after 15 to 60 mins by HR-HPLC-MS method; type: ADME; settings: 1000 µM
# [11] = Drug level in Sprague-Dawley rat liver microsomes assessed as CYP450-mediated compound formation treated with (S)-2-((S)-N,3-dimethyl-2-(methylamino)butanamido)-N,3-dimethyl-N-((S)-3-methyl-1-(methyl((S)-3-methyl-1-oxo-1-(phenethylamino)butan-2-yl)amino)-1-oxobutan-2-yl)butanamide at 1 mM preincubated with NADPH regenerating system followed by microsome addition measured after 15 to 60 mins by HR-HPLC-MS method; type: ADME; settings: 1000 µM
SMILES,Drug metabolism [8],growth inhibition (GI) (Micrococcus luteus),growth inhibition (GI) (Staphylococcus aureus [1]),growth inhibition (GI) (Staphylococcus aureus [2]),growth inhibition (GI) (Pseudomonas aeruginosa),growth inhibition (GI) (Enterococcus faecalis),growth inhibition (GI) (Escherichia coli),other results
CN[C@@H](CC(C)C)C(=O)N(C)[C@@H](CC(C)C)C(=O)N(C)[C@@H](CC(C)C)C(=O)N(C)[C@@H](CC(C)C)C(=O)NCCc1ccccc1,–,inactive,inactive,inactive,inactive,inactive,inactive,"IC50 (L6): 16.7 µg/mL; IC50 ([3]; STIB900, 72 h): 1.4 to 2.1 µg/mL"
CC(C)[C@H](N)C(=O)N[C@H](C(=O)N[C@H](C(=O)N[C@H](C(=O)NCCc1ccccc1)C(C)C)C(C)C)C(C)C (H-VVVV-NHPhenethyl),–,–,–,–,–,–,–,Drug metabolism [4]: Metabolite_Detected; Drug metabolism [5]: Metabolite_Detected; Drug metabolism [6]: Metabolite_Detected; half-life at 500 µM [7]: 30 min
CC(C)[C@H](N)C(=O)N[C@H](C(=O)N[C@H](C(=O)N[C@H](C(=O)NCCc1ccc(O)cc1)C(C)C)C(C)C)C(C)C (H-VVVV-{NH(4-OH-phenethyl)}),Metabolite_Detected,–,–,–,–,–,–,–
CC(C)[C@H](N)C(=O)N[C@H](C(=O)N[C@H](C(=O)N[C@H](C(=O)NCCc1ccccc1)C(C)C)C(C)(C)O)C(C)C (H-VV[Val(3-OH)]V-NHPhenethyl),Metabolite_Detected,–,–,–,–,–,–,–
CC(C)[C@H](N)C(=O)N[C@H](C(=O)N[C@H](C(=O)N[C@H](C(=O)NCCc1ccccc1)C(C)C)C(C)C)C(C)(C)O (H-V[Val(3-OH)]VV-NHPhenethyl),Metabolite_Detected,–,–,–,–,–,–,–
CN[C@@H](CC(C)C)C(=O)N(C)[C@@H](CC(C)C)C(=O)N(C)[C@@H](CC(C)C)C(=O)N(C)[C@@H](CC(C)C)C(=O)NCCc1ccc(O)cc1 (H-[NMeL][NMeL][NMeL][NMeL]-{NH(4-OH-phenethyl)}),–,inactive,inactive,inactive,inactive,inactive,inactive,IC50 (L6): 30.6 µg/mL
CN[C@H](C(=O)N(C)[C@H](C(=O)N(C)[C@H](C(=O)N(C)[C@H](C(=O)NCCc1ccccc1)C(C)C)C(C)C)C(C)C)C(C)C (H-[NMeV][NMeV][NMeV][NMeV]-NHPhenethyl),–,inactive,inactive,inactive,inactive,inactive,inactive,Drug metabolism [9]: Metabolite_Detected; half-life at 500 µM [7]: > 240 min; Drug metabolism [10]: Metabolite_Detected; Activity [3]: Active
CN[C@H](C(=O)N(C)[C@H](C(=O)N(C)[C@H](C(=O)N(C)[C@H](C(=O)NCCc1ccc(O)cc1)C(C)C)C(C)C)C(C)C)C(C)C (H-[NMeV][NMeV][NMeV][NMeV]-{NH(4-OH-phenethyl)}),–,–,–,–,–,–,–,Drug metabolism [11]: Metabolite_Detected
CN[C@H](C(=O)N(C)[C@H](C(=O)N(C)[C@H](C(=O)N(C)[C@H](C(=O)NCCc1ccccc1)C(C)C)C(C)C)C(C)C)C(C)(C)O (H-[NMeVal(β-OH)][NMeV][NMeV][NMeV]-NHPhenethyl),–,–,–,–,–,–,–,Drug metabolism [11]: Metabolite_Detected
